US20220213126A1, “SMALL MOLECULE AUTOPHAGY INDUCERS FOR THE TREATMENT OF CANCER AND NEURODEGENERATIVE DISEASES” (John Wayne Cancer Institute, priority 2019, published 2022)
Values joined by “and” are separate entries in the source; they are usually repeats but may differ in a detail not shown here. Equal values may be shown once.

Assays:
[1] = Pharmacokinetics of BC-4 and BC-5 in mouse plasma and brain; assay type: in vivo; conditions: Balb/c mice, single oral dose 5 mg/kg
Experimental: Pharmacokinetics of BC-4 and BC-5 were compared to BC-1. Pharmacokinetics were assessed in Balb/c mice administered a single oral dose of 5 mg/kg of the indicated compound (Tables 11 and 12).

[2] = Pharmacokinetics of BC-2 and BC-3 in mouse plasma and brain; assay type: in vivo, mice
Experimental: Pharmacokinetics were assessed in mice administered a single oral dose of 5 mg/kg of the indicated compound (Tables 9 and 10).

[3] = tested on: GBM4; assay: GBM cell viability, Alamar blue, 72 hours; assay type: cell-based; conditions: GBM4, patient-derived cell line
Experimental: (§1) The effect of VMY-BC-1 was tested on a panel of GBM cell lines. […] In this study 100 μM was the highest drug concentration used, with 3-fold dilution for a 10 dose response curve.

[4] = tested on: GBM8; assay: GBM cell viability, Alamar blue, 72 hours; assay type: cell-based; conditions: GBM8, patient-derived cell line
Experimental: as §1

[5] = tested on: GL261; assay: GBM cell viability, Alamar blue, 72 hours; assay type: cell-based; conditions: Mus musculus, GL261, established glioma cell line
Experimental: as §1

[6] = tested on: U251; assay: GBM cell viability, Alamar blue, 72 hours; assay type: cell-based; conditions: Homo sapiens, U-251, U251, established glioma cell line
Experimental: as §1

[7] = tested on: U87; assay: GBM cell viability, Alamar blue, 72 hours; assay type: cell-based; conditions: Homo sapiens, U-87 MG, U87, established glioma cell line
Experimental: as §1

[8] = Brain, single oral dose 5 mg/kg
[9] = Plasma, single oral dose 5 mg/kg
[10] = single oral dose 5 mg/kg, 0 min
[11] = single oral dose 5 mg/kg, 30 min
[12] = single oral dose 5 mg/kg, 60 min
[13] = single oral dose 5 mg/kg, 180 min
[14] = single oral dose 5 mg/kg, 360 min
[15] = single oral dose 5 mg/kg, 900 min
[16] = single oral dose 5 mg/kg, 1440 min

CC=C(c1ccc(OC)cc1)C(CC)c1cc(OC)cc(B(O)O)c1 (racemic) [BC-4]
Concentrations in plasma vs brain [1]: higher concentrations in plasma than brain | Brain level, Mean (4) ± SE ([1]; 0 min): BQL | Plasma level, Mean (4) ± SE ([1]; 0 min): BQL | Brain level, Mean (4) ± SE ([1]; 30 min): 164 ± 16 ng/g | Plasma level, Mean (4) ± SE ([1]; 30 min): 255 ± 20 ng,/ml | Brain level, Mean (4) ± SE ([1]; 60 min): 139 ± 14 ng/g | Plasma level, Mean (4) ± SE ([1]; 60 min): 163 ± 20 ng,/ml | Brain level, Mean (4) ± SE ([1]; 180 min): BQL | Plasma level, Mean (4) ± SE ([1]; 180 min): 36 ± 6 ng,/ml | Brain level, Mean (4) ± SE ([1]; 360 min): BQL | Plasma level, Mean (4) ± SE ([1]; 360 min): 22 ± 3 ng,/ml | Brain level, Mean (4) ± SE ([1]; 900 min): BQL | Plasma level, Mean (4) ± SE ([1]; 900 min): BQL | Brain level, Mean (4) ± SE ([1]; 1440 min): BQL | Plasma level, Mean (4) ± SE ([1]; 1440 min): BQL | Tmax ([1]; Brain): 30 min | T½ ([1]; Brain): 127 min | terminal elimination rate constant (lambda z) ([1]; Brain): 0.00546 min⁻¹ | AUC(0-t) ([1]; Plasma): 25300 ng·min/mL | AUC(inf) ([1]; Plasma): 28300 ng·min/mL | Cmax ([1]; Plasma): 255 ng/mL | Tmax ([1]; Plasma): 30 min | T½ ([1]; Plasma): 94.5 min | terminal elimination rate constant (lambda z) ([1]; Plasma): 0.00734 min⁻¹

CCOc1ccc(/C=C/c2cc(OC)cc(B(O)O)c2)cc1 [BC-2, (E)-(3-(4-ethoxystyryl)-5-methoxyphenyl) Boronic Acid]
AUC(0-inf) ([2]; mouse, in vivo, po, 5 mg/kg): 2000 ng·h/mL | AUC(inf) ([2]; mouse, in vivo, po, 5 mg/kg): 504000 ng·min/mL | Cmax ([2]; mouse, in vivo, po, 5 mg/kg): 841 ng/mL and 4140 ng/g | Concentration in brain vs plasma ([2]; mouse, in vivo, po, 5 mg/kg): higher concentration in brain than in plasma | Tmax ([2]; mouse, in vivo, po, 5 mg/kg): 60 min | T½ ([2]; mouse, in vivo, po, 5 mg/kg): 54.8 min | concentration at 30 min ([2]; mouse, in vivo, po, 5 mg/kg): 841 ng/mL and 3420 ng/g | concentration at 60 min ([2]; mouse, in vivo, po, 5 mg/kg): 732 ng/mL and 4140 ng/g | concentration at 180 min ([2]; mouse, in vivo, po, 5 mg/kg): 281 ng/mL and 983 ng/g | concentration at 360 min ([2]; mouse, in vivo, po, 5 mg/kg): 43 ng/mL and 94 ng/g | Tmax ([2]; mouse, in vivo, po, 5 mg/kg, Tmax): 30 min | half-life ([2]; mouse, in vivo, po, 5 mg/kg, T½): 72.8 min

COc1cc(/C=C/c2ccc(F)cc2)cc(B(O)O)c1 [BC-3]
Kd (Lambda Z) [2, 8]: 0.000342 s⁻¹ | Tmax [2, 8]: 30 min | T½ [2, 8]: 33.8 min | AUC(0-t) [2, 9]: 25500 ng·min/mL | AUC(inf) [2, 9]: 26300 ng·min/mL | Cmax [2, 9]: 439 ng/mL | Kd (Lambda Z) [2, 9]: 0.000358 s⁻¹ | Tmax [2, 9]: 30 min | T½ [2, 9]: 32.3 min | Concentration in brain vs plasma ([2]; single oral dose 5 mg/kg): higher concentration in brain than in plasma | Brain level, Mean (4) ± SE [2, 10]: BQL | Plasma level, Mean (4) ± SE [2, 10]: BQL | Brain level, Mean (4) ± SE [2, 11]: 1951 ± 323 ng/g | Plasma level, Mean (4) ± SE [2, 11]: 439 ± 67 ng/mL | Brain level, Mean (4) ± SE [2, 12]: 1233 ± 219 ng/g | Plasma level, Mean (4) ± SE [2, 12]: 217 ± 28 ng/mL | Brain level, Mean (4) ± SE [2, 13]: 95 ± 26 ng/g | Plasma level, Mean (4) ± SE [2, 13]: 17 ± 10 ng/mL | Brain level, Mean (4) ± SE [2, 14]: BQL | Plasma level, Mean (4) ± SE [2, 14]: BQL | Brain level, Mean (4) ± SE [2, 15]: BQL | Plasma level, Mean (4) ± SE [2, 15]: BQL | Brain level, Mean (4) ± SE [2, 16]: BQL | Plasma level, Mean (4) ± SE [2, 16]: BQL

CCC(=C(c1ccccc1)c1ccc(OC)cc1)c1cc(OC)cc(B(O)O)c1 [BC-5]
Concentrations in plasma vs brain [1]: higher concentrations in plasma than brain | Brain level, Mean (4) ± SE ([1]; 0 min): BQL | Plasma level, Mean (4) ± SE ([1]; 0 min): BQL | Brain level, Mean (4) ± SE ([1]; 30 min): 142 ± 32 ng/g | Plasma level, Mean (4) ± SE ([1]; 30 min): 1599 ± 40 ng,/ml | Brain level, Mean (4) ± SE ([1]; 60 min): 205 ± 39 ng/g | Plasma level, Mean (4) ± SE ([1]; 60 min): 1524 ± 106 ng,/ml | Brain level, Mean (4) ± SE ([1]; 180 min): 105 ± 26 ng/g | Plasma level, Mean (4) ± SE ([1]; 180 min): 742 ± 91 ng,/ml | Brain level, Mean (4) ± SE ([1]; 360 min): 28 ± 6 ng/g | Plasma level, Mean (4) ± SE ([1]; 360 min): 290 ± 35 ng,/ml | Brain level, Mean (4) ± SE ([1]; 900 min): BQL | Plasma level, Mean (4) ± SE ([1]; 900 min): 49 ± 10 ng,/ml | Brain level, Mean (4) ± SE ([1]; 1440 min): BQL | Plasma level, Mean (4) ± SE ([1]; 1440 min): 15 ± 9 ng,/ml | Tmax ([1]; Brain): 60 min | T½ ([1]; Brain): 103 min | terminal elimination rate constant (lambda z) ([1]; Brain): 0.00672 min⁻¹ | AUC(0-t) ([1]; Plasma): 376000 ng·min/mL | AUC(inf) ([1]; Plasma): 381000 ng·min/mL | Cmax ([1]; Plasma): 1600 ng/mL | Tmax ([1]; Plasma): 30 min | T½ ([1]; Plasma): 251 min | terminal elimination rate constant (lambda z) ([1]; Plasma): 0.00276 min⁻¹

Oc1ccc(C=Cc2cc(O)cc(O)c2)cc1 [Resveratrol, resveratrol, reference compound]
IC50 [3]: 40.6 µM | IC50 [4]: 26.6 µM | IC50 [5]: 10.6 µM | IC50 [6]: 12 µM | IC50 [7]: 40 µM | Drug level in plasma and brain, all time points ([2]; single oral dose 5 mg/kg): below quantification level | Brain level, Mean (4) ± SE [2, 10]: BQL | Plasma level, Mean (4) ± SE [2, 10]: BQL | Brain level, Mean (4) ± SE [2, 11]: BQL | Plasma level, Mean (4) ± SE [2, 11]: BQL | Brain level, Mean (4) ± SE [2, 12]: BQL | Plasma level, Mean (4) ± SE [2, 12]: BQL | Brain level, Mean (4) ± SE [2, 13]: BQL | Plasma level, Mean (4) ± SE [2, 13]: BQL | Brain level, Mean (4) ± SE [2, 14]: BQL | Plasma level, Mean (4) ± SE [2, 14]: BQL | Brain level, Mean (4) ± SE [2, 15]: BQL | Plasma level, Mean (4) ± SE [2, 15]: BQL | Brain level, Mean (4) ± SE [2, 16]: BQL | Plasma level, Mean (4) ± SE [2, 16]: BQL
